Data on nine compounds can be found in patent US7452887B2, “Quinoline- and isoquinoline-based compounds exhibiting ATP-utilizing enzyme inhibitory activity, and compositions, and uses thereof” (Amphora Discovery Corporation, priority 2004, dated 2008).

Assay in all cases: HTS ATP-utilizing enzyme assay, off-chip mobility-shift (Caliper HTS 250)
Details in all cases: test compound 10 μM, kinase listed = active (greater than six-sigma from the mean activity of inactive compounds)

For test [1], the target named is MAPKAPK2 (Homo sapiens, UniProt P49137). In kind it is biochemical. The gist of the method:
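Single-point screen of test compound at 10 μM against MAPKAPK2 with peptide substrate in HEPES pH 7.5 buffer (Triton X-100, BSA), 2.5 h at 20-22 °C. Substrate-to-phosphopeptide ratio was read by off-chip microfluidic mobility shift; EDTA and DMSO wells defined 100% and 0% controls, hits by six-sigma limits.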

Test [2] has as its target T1, PRAK (Homo sapiens, UniProt Q8IW41).
T1 sequence (Q8IW41 1-473): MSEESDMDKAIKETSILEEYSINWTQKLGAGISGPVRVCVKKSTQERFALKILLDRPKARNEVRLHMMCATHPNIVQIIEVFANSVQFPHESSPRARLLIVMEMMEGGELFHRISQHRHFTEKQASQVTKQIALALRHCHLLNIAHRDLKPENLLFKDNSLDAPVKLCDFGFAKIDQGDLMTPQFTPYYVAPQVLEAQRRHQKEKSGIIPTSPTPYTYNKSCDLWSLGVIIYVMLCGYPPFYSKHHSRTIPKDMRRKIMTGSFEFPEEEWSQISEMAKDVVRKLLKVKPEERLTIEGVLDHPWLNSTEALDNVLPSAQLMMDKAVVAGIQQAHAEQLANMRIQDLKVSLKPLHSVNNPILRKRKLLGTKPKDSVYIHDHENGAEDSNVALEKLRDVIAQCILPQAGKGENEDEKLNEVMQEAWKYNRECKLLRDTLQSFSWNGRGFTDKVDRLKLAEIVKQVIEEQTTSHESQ
It is filed as biochemical. In short, it runs like this:
(§1)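 Steps: compound added at 10 μM final; enzyme then peptide substrate added in HEPES pH 7.5, Triton X-100, BSA buffer; incubation 2.5 hrs at 20° C. to 22° C.; EDTA quench; microfluidic separation of substrate and phosphoproduct. DMSO wells set 0% inhibition, EDTA wells 100%.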

In test [3] the test system is CK2. It is filed as biochemical, human. The text has this: The following procedures describe the reagent and plate preparation for a HTS of an ATP-utilizing enzyme, such as a protein kinase, run in an off-chip mobility-shift assay format. The following provides an HTS protocol for running a protein kinase HTS screen on a Caliper HTS 250 microfluidics system. The following parameters are dependent on the protein kinase used and can be determined by one skilled in the art as part of a typical assay development process. For example, the peptide substrate used can be identified from the current literature, by screening a peptide library of potential protein kinase substrates, or by other applicable means accepted in the field.
The following table provides typical screen assay parameters appropriate for a Caliper HTS 250 microfluidics system.
The reagents and buffers listed in the following table are generally applicable for developing and running an HTS screen on a human protein kinase using the Caliper HTS 250 system.
The following reagents were prepared using the previously described buffers.
A 2× Master Buffer solution was prepared by combining 200 mL of 1 M HEPES, pH 7.5, 2 mL of 10% Triton X-100, 20 mL of 10% BSA, and 778 mL of H2O.
A 2.5× Substrate Buffer solution was prepared by combining 177.408 mL of 2× Master Buffer, 0.887 mL of 1 mM peptide-X, and 176.521 mL of H2O.
A 1.55× Termination Buffer solution was prepared by combining 762.05 mL of 2× Master Buffer, 95.1 mL of 0.5 M EDTA, and 666.94 mL of H2O. […]
Assays to determine the kinase inhibitory activity of compounds of the present disclosure were performed using a Caliper HTS 250 microfluidics device, Greiner U-bottom assay plates, a Multidrop for transfer of reagents, and Biomek FX (AMNCBM03) software. […] The inhibition of the ATP-utilizing enzyme, such as a particular protein kinase, was determined by measuring the ratio of the peptide substrate to phosphorylated product for each well of the assay plate using the Caliper HTS 250 system. […]

For test [4], the target named is ABL1 (Homo sapiens, UniProt P00519). In kind it is biochemical. The gist of the method:
as §1

The target in test [5] is AKT3 (Homo sapiens, UniProt Q9Y243). In kind it is biochemical. In short, it runs like this: as §1
Chain of AKT3 (Q9Y243 whole entry): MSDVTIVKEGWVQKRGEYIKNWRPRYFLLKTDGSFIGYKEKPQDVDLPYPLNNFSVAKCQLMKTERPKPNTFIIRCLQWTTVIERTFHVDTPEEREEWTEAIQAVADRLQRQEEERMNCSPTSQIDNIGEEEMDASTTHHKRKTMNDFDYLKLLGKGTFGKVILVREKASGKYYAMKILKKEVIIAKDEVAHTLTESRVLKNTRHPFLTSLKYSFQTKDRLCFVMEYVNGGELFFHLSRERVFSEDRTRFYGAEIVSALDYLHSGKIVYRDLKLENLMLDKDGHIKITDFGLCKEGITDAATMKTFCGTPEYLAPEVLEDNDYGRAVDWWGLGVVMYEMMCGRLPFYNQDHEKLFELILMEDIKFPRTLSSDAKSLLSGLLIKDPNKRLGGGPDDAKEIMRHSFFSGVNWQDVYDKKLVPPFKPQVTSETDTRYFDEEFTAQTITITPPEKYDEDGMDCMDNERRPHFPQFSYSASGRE
Test [6] concerns the target LCK (Homo sapiens, UniProt P06239). In kind it is biochemical. In short, it runs like this: as §1
Test [7] has as its target SRC (Homo sapiens, UniProt P12931). In kind it is biochemical. In short, it runs like this:
as §1

The target of test [8] is CDK1/cyclin B (Homo sapiens, UniProt P06493). In kind it is biochemical. In short, it runs like this: as §1
Test [9] has as its target KIT (Homo sapiens, UniProt P10721). In kind it is biochemical. In short, it runs like this: as §1
Test [10] deals with C-TAK1 (Homo sapiens, UniProt P27448). It is filed as biochemical. In short, it runs like this:
as §1

In test [11] the target is CDK2/cyclin A (Homo sapiens, UniProt P24941). In kind it is biochemical. The gist of the method: as §1
In test [12] the target is CHEK2 (Homo sapiens, UniProt O96017). It is filed as biochemical. In short, it runs like this:
as §1

The target in test [13] is T2, NEK2 (Homo sapiens, UniProt P51955).
T2 sequence (P51955 1-445): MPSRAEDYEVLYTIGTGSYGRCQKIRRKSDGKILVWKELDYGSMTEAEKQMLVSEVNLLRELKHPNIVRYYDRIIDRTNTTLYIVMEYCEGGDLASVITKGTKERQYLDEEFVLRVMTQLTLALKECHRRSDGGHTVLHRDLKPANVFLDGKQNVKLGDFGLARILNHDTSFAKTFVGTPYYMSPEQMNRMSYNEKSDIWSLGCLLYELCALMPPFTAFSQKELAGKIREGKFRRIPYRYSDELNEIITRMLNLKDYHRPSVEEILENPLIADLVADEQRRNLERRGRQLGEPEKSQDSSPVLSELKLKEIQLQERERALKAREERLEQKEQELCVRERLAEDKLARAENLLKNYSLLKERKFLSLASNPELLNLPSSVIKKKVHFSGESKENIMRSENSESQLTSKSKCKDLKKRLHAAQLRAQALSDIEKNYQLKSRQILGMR
It is filed as biochemical. In short, it runs like this: as §1

The target in test [14] is SYK (Homo sapiens, UniProt P43405). In kind it is biochemical. The gist of the method: as §1
The target in test [15] is LYNA (Homo sapiens, UniProt P07948). In kind it is biochemical. The gist of the method: as §1
Chain of LYNA (P07948 whole entry): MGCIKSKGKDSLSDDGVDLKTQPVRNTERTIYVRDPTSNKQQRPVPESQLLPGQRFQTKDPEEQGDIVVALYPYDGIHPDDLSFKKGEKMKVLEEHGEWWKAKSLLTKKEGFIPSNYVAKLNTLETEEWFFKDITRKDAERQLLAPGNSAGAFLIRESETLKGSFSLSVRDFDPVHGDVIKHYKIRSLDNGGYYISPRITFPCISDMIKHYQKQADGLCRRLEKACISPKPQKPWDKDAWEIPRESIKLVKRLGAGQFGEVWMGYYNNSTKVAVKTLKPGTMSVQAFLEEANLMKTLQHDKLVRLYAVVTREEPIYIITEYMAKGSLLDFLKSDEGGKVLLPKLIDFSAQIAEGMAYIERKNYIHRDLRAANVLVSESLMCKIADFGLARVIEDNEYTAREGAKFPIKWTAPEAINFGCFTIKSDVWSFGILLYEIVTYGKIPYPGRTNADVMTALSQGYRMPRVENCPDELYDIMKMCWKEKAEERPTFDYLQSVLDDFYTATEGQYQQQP
For test [16], the target named is GSK3-α (Homo sapiens, UniProt P49840). In kind it is biochemical. In short, it runs like this:
as §1

Chain of CHEK2 (O96017 whole entry): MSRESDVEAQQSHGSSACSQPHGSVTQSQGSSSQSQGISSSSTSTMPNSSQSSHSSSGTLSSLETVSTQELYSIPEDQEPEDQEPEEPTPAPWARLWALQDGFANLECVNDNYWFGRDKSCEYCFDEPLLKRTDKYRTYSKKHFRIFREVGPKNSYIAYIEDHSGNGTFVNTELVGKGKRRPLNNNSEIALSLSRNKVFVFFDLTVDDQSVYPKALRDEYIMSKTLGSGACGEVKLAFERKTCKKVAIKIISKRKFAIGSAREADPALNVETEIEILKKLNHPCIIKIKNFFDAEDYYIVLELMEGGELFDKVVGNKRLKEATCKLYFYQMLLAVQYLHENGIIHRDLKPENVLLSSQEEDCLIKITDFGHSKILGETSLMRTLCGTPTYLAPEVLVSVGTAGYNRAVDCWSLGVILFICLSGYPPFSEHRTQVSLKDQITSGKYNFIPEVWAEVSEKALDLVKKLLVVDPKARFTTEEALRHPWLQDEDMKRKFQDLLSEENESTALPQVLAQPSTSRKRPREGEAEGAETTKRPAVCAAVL
Chain of C-TAK1 (P27448 whole entry): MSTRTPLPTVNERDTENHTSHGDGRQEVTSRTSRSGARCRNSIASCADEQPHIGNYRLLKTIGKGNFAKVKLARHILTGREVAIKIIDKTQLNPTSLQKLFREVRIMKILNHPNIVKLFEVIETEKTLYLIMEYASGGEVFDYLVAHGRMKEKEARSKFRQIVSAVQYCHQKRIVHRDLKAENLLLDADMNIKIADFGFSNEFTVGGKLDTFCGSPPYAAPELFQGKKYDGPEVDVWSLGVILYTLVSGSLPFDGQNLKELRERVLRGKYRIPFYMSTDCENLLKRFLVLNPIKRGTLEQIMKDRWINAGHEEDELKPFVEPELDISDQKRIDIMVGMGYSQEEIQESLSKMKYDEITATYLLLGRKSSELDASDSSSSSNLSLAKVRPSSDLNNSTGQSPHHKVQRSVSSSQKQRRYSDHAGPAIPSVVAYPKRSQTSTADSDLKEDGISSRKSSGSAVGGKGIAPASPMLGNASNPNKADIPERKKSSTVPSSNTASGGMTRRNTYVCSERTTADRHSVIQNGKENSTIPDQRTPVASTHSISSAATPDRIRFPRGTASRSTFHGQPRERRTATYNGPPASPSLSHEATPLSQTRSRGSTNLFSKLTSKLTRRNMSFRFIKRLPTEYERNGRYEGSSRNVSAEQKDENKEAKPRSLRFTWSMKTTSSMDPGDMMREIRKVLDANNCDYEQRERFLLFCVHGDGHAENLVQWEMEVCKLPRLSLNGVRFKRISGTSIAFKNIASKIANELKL
Chain of MAPKAPK2 (P49137 whole entry): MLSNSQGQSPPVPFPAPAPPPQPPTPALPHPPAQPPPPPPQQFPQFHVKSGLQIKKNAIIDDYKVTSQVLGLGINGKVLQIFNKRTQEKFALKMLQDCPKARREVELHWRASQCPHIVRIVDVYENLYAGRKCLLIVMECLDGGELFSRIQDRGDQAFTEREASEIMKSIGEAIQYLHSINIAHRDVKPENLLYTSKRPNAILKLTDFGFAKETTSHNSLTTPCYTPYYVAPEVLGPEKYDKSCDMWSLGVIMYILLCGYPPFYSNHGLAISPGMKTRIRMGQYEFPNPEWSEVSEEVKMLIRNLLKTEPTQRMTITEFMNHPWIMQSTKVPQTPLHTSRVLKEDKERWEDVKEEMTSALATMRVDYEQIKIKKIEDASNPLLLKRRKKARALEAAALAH
Chain of LCK (P06239 whole entry): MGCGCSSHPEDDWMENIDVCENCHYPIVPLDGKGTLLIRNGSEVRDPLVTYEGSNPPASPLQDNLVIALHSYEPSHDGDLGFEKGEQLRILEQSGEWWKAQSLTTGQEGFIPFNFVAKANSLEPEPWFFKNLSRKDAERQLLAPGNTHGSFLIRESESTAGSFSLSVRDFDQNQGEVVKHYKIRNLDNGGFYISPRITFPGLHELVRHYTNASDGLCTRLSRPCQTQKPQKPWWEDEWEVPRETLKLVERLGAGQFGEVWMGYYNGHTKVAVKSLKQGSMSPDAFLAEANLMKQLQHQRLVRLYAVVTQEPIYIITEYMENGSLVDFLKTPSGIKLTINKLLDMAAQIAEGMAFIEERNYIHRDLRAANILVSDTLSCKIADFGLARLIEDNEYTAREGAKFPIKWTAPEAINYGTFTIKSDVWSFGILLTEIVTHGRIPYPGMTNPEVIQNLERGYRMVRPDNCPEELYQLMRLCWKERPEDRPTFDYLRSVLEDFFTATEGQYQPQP
Chain of ABL1 (P00519 whole entry): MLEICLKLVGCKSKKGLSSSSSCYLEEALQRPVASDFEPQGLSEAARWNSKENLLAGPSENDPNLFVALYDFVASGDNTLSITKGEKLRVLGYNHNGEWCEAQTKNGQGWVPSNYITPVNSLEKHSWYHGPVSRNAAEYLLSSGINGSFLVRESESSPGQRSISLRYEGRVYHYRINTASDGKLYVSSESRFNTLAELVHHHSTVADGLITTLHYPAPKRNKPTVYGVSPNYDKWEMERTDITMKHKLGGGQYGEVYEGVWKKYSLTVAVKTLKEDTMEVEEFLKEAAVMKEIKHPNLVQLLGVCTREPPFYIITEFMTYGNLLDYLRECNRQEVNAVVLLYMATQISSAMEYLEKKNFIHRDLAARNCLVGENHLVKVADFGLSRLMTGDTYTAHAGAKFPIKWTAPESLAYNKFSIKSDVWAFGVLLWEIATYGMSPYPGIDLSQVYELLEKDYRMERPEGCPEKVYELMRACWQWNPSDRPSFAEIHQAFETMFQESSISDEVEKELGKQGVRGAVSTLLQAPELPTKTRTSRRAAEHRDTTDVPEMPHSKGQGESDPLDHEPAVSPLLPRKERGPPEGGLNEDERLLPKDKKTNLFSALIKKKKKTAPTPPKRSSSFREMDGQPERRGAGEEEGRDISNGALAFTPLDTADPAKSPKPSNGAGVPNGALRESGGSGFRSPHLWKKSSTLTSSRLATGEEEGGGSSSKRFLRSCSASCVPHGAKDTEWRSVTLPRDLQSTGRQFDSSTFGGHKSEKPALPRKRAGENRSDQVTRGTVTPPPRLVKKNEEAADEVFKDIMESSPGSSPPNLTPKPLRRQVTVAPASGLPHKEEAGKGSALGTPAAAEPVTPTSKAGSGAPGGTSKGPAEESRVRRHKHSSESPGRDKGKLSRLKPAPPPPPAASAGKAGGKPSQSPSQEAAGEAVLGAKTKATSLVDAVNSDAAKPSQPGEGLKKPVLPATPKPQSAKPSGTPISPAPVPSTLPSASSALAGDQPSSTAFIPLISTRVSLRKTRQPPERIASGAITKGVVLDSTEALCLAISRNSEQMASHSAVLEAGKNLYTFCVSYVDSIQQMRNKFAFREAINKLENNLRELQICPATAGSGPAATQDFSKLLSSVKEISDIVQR
Chain of SRC (P12931 whole entry): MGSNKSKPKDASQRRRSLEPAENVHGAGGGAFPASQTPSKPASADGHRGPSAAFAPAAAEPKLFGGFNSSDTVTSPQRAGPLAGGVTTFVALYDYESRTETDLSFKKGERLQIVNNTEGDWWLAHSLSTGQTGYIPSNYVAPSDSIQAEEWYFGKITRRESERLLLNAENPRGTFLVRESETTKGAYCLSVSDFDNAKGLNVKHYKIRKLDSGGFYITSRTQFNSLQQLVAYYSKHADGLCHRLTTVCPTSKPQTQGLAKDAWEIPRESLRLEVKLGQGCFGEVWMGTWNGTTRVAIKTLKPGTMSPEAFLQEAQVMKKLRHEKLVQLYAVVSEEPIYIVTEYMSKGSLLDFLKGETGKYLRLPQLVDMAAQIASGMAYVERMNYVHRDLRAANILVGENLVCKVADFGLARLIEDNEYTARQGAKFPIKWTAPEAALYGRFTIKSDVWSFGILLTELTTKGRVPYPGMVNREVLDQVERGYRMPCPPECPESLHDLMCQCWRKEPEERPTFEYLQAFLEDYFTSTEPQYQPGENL

For the compound `CN1CCN(c2ccc(Nc3ccnc4ccc(-c5cccc(C(=O)O)c5)cc34)cc2)CC1` [3-(4-(4-(4-methylpiperazin-1-yl)phenylamino)quinolin-6-yl)benzoic acid], the values for the Activity entry in test [1], in test [2] and in test [3] were “MAPKAPK2”, “PRAK” and “CK2”, respectively.

As for `CN1CCN(c2ccc(Nc3ccnc4ccc(-c5cccc(O)c5)cc34)cc2)CC1` [3-(4-(4-(4-methylpiperazin-1-yl)phenylamino)quinolin-6-yl)phenol], the Activity result in test [1] was “MAPKAPK2”; in test [4], “ABL1”; in [5], “AKT3”; in test [6], “LCK”; in [2], “PRAK”; in [7], “SRC”.

`CNC1CCN(c2ccc(Nc3ccnc4ccc(-c5ccc(C#N)cc5)cc34)cc2)C1` (centres unmarked) [4-(4-(4-(3-(methylamino)pyrrolidin-1-yl)phenylamino)quinolin-6-yl)benzonitrile]: the Activity entry is reported as “CDK1/cyclin B” in test [8], “KIT” in test [9] and “PRAK” in test [2].

With `CN1CCN(c2ccc(Nc3ccnc4ccc(-c5ccc(Cl)c(Cl)c5)cc34)cc2)CC1` [6-(3,4-dichlorophenyl)-N-(4-(4-methylpiperazin-1-yl)phenyl)quinolin-4-amine], the Activity entry in test [1] is reported as “MAPKAPK2”; in [10], “C-TAK1”; in test [11] it was “CDK2/cyclin A”; in [12] it was “CHEK2”; in [13] it was “NEK2”; in test [2], “PRAK”.

As to `CN1CCN(c2ccc(Nc3ccnc4ccc(-c5cccc(OCc6ccccc6)c5)cc34)cc2)CC1` [6-(3-(benzyloxy)phenyl)-N-(4-(4-methylpiperazin-1-yl)phenyl)quinolin-4-amine], the Activity result is “MAPKAPK2” in test [1]; “C-TAK1” in test [10]; “CDK2/cyclin A” in test [11]; “CHEK2” in test [12]; “PRAK” in test [2].

For the compound `CN1CCN(c2ccc(Nc3ccnc4ccc(-c5ccc(OCc6ccccc6)c(F)c5)cc34)cc2)CC1` [6-(4-(benzyloxy)-3-fluorophenyl)-N-(4-(4-methylpiperazin-1-yl)phenyl)quinolin-4-amine], the Activity entry in test [1] is “MAPKAPK2”; in test [10], “C-TAK1”; in test [7], “SRC”; in [14], “SYK”.

As to `CN1CCN(c2ccc(Nc3ccnc4ccc(-c5ccccc5-c5ccccc5)cc34)cc2)CC1` [6-(biphenyl-2-yl)-N-(4-(4-methylpiperazin-1-yl)phenyl)quinolin-4-amine], the Activity entry is “ABL” in test [4]; “LCK” in test [6]; “LYNA” in test [15]; “NEK2” in [13]; “PRAK” in test [2].

On to `CN1CCN(c2ccc(Nc3ccnc4ccc(-c5ccccc5C(F)(F)F)cc34)cc2)CC1` [N-(4-(4-methylpiperazin-1-yl)phenyl)-6-(2-(trifluoromethyl)phenyl)quinolin-4-amine], for which the Activity entry in test [1] is given as “MAPKAPK2”; in [13], “NEK2”; in test [2], “PRAK”; in [3], “CK2”.

On to `CN1CCN(c2ccc(Nc3ccnc4ccc(-c5cccs5)cc34)cc2)CC1` [N-(4-(4-methylpiperazin-1-yl)phenyl)-6-(thiophen-2-yl)quinolin-4-amine], for which the Activity entry in test [1] is reported as “MAPKAPK2”; in [11], “CDK2/cyclin A”; in test [12] it was “CHEK2”; in test [16], “GSK3-α”; in [2] it was “PRAK”.
